The values below come from patent US20050208000A1, “Compositions and methods for prevention of photoaging” (priority 1999, published 2005).

The test deals with human elastin promoter. Kind of test: Transgenic mouse model of photoaging: human elastin promoter/CAT reporter activity in skin after solar simulating radiation. The class given is in vivo, mice. The source says: A transgenic mouse model which contains the human elastin promoter linked to a chloramphenicol acetyltransferase (CAT) reporter gene for testing compounds that may inhibit cutaneous photodamage has been developed. These mice express human elastin promoter activity in a tissue-specific and developmentally regulated manner. […] In addition, quantitative data can be obtained after only a single exposure to ultraviolet radiation. A test compound is applied to the skin of a transgenic mouse capable of expressing the human elastin promoter. The transgenic mouse is then exposed to solar radiation and human elastin promoter activity in the mouse is determined. The human elastin promoter activity is then compared to that in transgenic mice also exposed to an equivalent dose of solar radiation which were not treated with the test compound to determine whether or not the test compound provided protection against the solar radiation. […]
Using this transgenic mouse line, the ability of alpha 1-antitrypsin to inhibit the effects of solar radiation on human elastin promoter activity was determined. […]
To measure the expression of the human elastin promoter/CAT reporter gene construct in the skin of transgenic, mice and in fibroblast cultures established from these animals, CAT activity was determined. […]

As for alpha 1-antitrypsin, the “reduction in CAT activity” value (topical 20 mg/ml alpha 1-antitrypsin in goat's milk versus goat's milk alone, 20 MEDs SSR on three consecutive days) is recorded as 69%. Moreover, the “Relative increase in CAT activity (mean+S.D.)” value (transgenic mice, topical application to the back about 15 min before 20 MEDs SSR, three consecutive days, skin harvested 24 hours after third phototreatment, baseline of unirradiated untreated control mice standardized to one) is 4.5+1.0.
